From publication PMC10088752 (Journal of Natural Medicines, 2023)

Target: BACE1 (Homo sapiens, UniProt P56817)
Experiment: BACE1 FRET assay
Assay type: biochemical

Chain of BACE1 (P56817 46-501): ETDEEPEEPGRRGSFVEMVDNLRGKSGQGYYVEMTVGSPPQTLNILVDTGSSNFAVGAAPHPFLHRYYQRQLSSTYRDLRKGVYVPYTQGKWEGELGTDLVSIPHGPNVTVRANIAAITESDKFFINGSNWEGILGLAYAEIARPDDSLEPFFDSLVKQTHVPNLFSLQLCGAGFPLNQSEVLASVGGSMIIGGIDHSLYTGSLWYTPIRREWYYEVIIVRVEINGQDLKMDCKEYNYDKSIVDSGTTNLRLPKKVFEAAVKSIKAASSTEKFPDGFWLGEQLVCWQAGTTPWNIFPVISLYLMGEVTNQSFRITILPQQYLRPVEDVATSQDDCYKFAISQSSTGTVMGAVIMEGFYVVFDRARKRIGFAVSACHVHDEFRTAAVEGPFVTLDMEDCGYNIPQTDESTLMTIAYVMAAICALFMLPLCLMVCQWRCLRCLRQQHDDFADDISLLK

| Structure (SMILES) | IC50 [µM] |
| --- | --- |
| COc1cc(OC)c2c(O)c3c(=O)cc(C)oc3c(-c3c(OC)cc4cc(O)c5c(=O)cc(C)oc5c4c3OC)c2c1 [Compound 4, fonsecinone A] | 14.9 |
| COc1cc(OC)c2c(O)c3c(=O)cc(C)oc3c(-c3c(O)cc4cc(O)c5c(=O)cc(C)oc5c4c3OC)c2c1 [Compound 7, asperpyrone A] | 36.5 |
